From US6028201A, “Inhibitors of farnesyl-protein transferase” (Merck & Co., Inc., priority 1998, dated 2000)
Counter-ions that a name gives are not always drawn.

Biological target: T1, human FPTase (Homo sapiens, UniProt P49354+P49356)
T1 construct: made in house
Assay: In vitro inhibition of human FPTase
Type: biochemical
Conditions: 100 nM Ras-CVIM substrate, [3H]-FPP, 30 min; read-out: IC50 against human FPTase

Compound `CCCCCN(Cc1cncn1Cc1ccc(C#N)cc1)C(=O)Nc1cccc(Cl)c1` [Example 1, N-(3-chlorophenyl)-N'-[1-(4-cyanobenzyl)-5-imidazolylmethyl]-N'-(n-pentyl)urea hydrochloride] has an IC50 of less than 10 µM.

For `CCCCCN(Cc1cncn1Cc1ccc(C#N)cc1)C(=O)N(C)c1cccc(Cl)c1` [Example 2, N-(3-chlorophenyl)-N-methyl-N'-[1-(4-cyanobenzyl)-5-imidazolylmethyl]-N'-(n-pentyl)urea hydrochloride], the IC50 was less than 10 µM.
